Test results as given in US10336709B2, “Lp-PLA2 inhibitors” (ABIDE THERAPEUTICS, INC., priority 2015, dated 2019).

Legend:
ABHD6 = target: T1, ABHD6 (Mus musculus, UniProt Q8R2Y0); test: In vitro competitive activity-based protein profiling (HT-01 probe, gel band ABHD6); assay type: biochemical; parameters: ABHD6 % at 100 μM: scale not given here; conditions: mouse brain membrane proteomes; for IC50: 30 min preincubation at 37° C
T1 construct: Mouse brain membrane proteomes (50 μL, 1.0 mg/mL total protein concentration) were preincubated; from tissue; host or cells: mouse brain membrane fraction
T1 sequence (Q8R2Y0 1-336): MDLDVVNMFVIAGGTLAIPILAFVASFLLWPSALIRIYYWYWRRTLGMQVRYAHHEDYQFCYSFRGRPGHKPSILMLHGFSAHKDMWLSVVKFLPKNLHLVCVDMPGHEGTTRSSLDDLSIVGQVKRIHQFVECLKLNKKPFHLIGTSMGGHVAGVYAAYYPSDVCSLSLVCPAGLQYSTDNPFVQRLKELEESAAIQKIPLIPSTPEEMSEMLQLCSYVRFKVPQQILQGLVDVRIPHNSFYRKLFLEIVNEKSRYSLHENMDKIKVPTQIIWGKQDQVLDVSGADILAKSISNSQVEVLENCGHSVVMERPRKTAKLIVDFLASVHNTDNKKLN
Method: (§1) Compounds are tested to assess their Lp-PLA2 and serine hydrolase activity using the following in vitro assays.
(§2) In Vitro Competitive Activity-Based Protein Profiling
(§3) Mouse brain membrane proteomes (50 μL, 1.0 mg/mL total protein concentration) were preincubated with varying concentrations of inhibitors at 37° C. After 30 min, HT-01 probe (1.0 μL, 50 μM in DMSO) was added and the mixture was incubated for another 30 min at room temperature. Reactions were quenched with SDS loading buffer (15 μL-4×) and run on SDS-PAGE gels. Following gel imaging, serine hydrolase activity was determined by measuring fluorescent intensity of gel bands corresponding to PLA2G7 and ABHD6 using ImageJ 1.49 k software.

Lp-PLA2 = target: T2, Lp-PLA2 (Mus musculus, UniProt Q60963); test: In vitro competitive activity-based protein profiling (HT-01 probe, gel band PLA2G7); assay type: biochemical; parameters: Lp-PLA2 % at 100 μM: scale not given here; conditions: mouse brain membrane proteomes; for IC50: 30 min preincubation at 37° C
T2 construct: Mouse brain membrane proteomes (50 μL, 1.0 mg/mL total protein concentration) were preincubated; from tissue; host or cells: mouse brain membrane fraction
T2 sequence (Q60963 22-440): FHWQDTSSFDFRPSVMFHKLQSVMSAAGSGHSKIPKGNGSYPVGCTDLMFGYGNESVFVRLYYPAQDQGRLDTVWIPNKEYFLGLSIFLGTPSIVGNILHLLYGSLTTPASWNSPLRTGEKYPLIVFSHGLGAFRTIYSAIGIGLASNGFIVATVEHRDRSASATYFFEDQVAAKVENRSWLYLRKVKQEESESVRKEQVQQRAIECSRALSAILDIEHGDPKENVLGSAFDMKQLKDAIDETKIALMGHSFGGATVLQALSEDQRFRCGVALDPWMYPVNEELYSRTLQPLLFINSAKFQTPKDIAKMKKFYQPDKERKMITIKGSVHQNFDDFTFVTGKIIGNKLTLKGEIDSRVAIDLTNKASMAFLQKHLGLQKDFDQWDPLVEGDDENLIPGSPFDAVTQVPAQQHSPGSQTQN
Method: as §1, §2, §3

IC50 (ABHD6) [nM]	IC50 (Lp-PLA2) [nM]	SMILES	further results
< 100	100 to 1000	CC(C)[C@@H]1NC(=O)N(OC(=O)N2CCN(c3cccc(C(=O)N4CCCC4)c3Cl)CC2)C1=O [Example 1, (S)-4-isopropyl-2,5-dioxoimidazolidin-1-yl 4-(2-chloro-3-(pyrrolidine-1-carbonyl)phenyl)piperazine-1-carboxylate]	
100 to 1000	100 to 1000	CC(C)[C@@H]1NC(=O)N(OC(=O)N2CCN(c3cccc(C(=O)N4CCCCC4)c3Cl)CC2)C1=O [Example 2, (S)-4-isopropyl-2,5-dioxoimidazolidin-1-yl 4-(2-chloro-3-(piperidine-1-carbonyl)phenyl)piperazine-1-carboxylate]	
100 to 1000	100 to 1000	CC(C)[C@@H]1NC(=O)N(OC(=O)N2CCN(c3cccc(C(=O)N4CCOCC4)c3Cl)CC2)C1=O [Example 3, (S)-4-isopropyl-2,5-dioxoimidazolidin-1-yl 4-(2-chloro-3-(morpholine-4-carbonyl)phenyl)piperazine-1-carboxylate]	
100 to 1000		CC(C)[C@H]1NC(=O)N(OC(=O)N2CCN(c3cccc(C(=O)N4CCCC4)c3Cl)CC2)C1=O [Example 4, (R)-4-isopropyl-2,5-dioxoimidazolidin-1-yl 4-(2-chloro-3-(pyrrolidine-1-carbonyl)phenyl)piperazine-1-carboxylate]	inhibition at 10 µM (Lp-PLA2): 75%
100 to 1000		CC(C)[C@H]1NC(=O)N(OC(=O)N2CCN(c3cccc(C(=O)N4CCCCC4)c3Cl)CC2)C1=O [Example 5, (R)-4-isopropyl-2,5-dioxoimidazolidin-1-yl 4-(2-chloro-3-(piperidine-1-carbonyl)phenyl)piperazine-1-carboxylate]	inhibition at 10 µM (Lp-PLA2): 75%
100 to 1000		CC(C)[C@H]1NC(=O)N(OC(=O)N2CCN(c3cccc(C(=O)N4CCOCC4)c3Cl)CC2)C1=O [Example 6, (R)-4-isopropyl-2,5-dioxoimidazolidin-1-yl 4-(2-chloro-3-(morpholine-4-carbonyl)phenyl)piperazine-1-carboxylate]	inhibition at 10 µM (Lp-PLA2): 75%
< 100	< 100	O=C(ON1C(=O)N[C@@H](Cc2ccccc2)C1=O)N1CCN(c2cccc(C(=O)N3CCCC3)c2Cl)CC1 [Example 7, (S)-4-benzyl-2,5-dioxoimidazolidin-1-yl 4-(2-chloro-3-(pyrrolidine-1-carbonyl)phenyl)piperazine-1-carboxylate]	
100 to 1000	< 100	O=C(ON1C(=O)N[C@@H](Cc2ccccc2)C1=O)N1CCN(c2cccc(C(=O)N3CCCCC3)c2Cl)CC1 [Example 8, (S)-4-benzyl-2,5-dioxoimidazolidin-1-yl 4-(2-chloro-3-(piperidine-1-carbonyl)phenyl)piperazine-1-carboxylate]	
100 to 1000	< 100	O=C(ON1C(=O)N[C@@H](Cc2ccccc2)C1=O)N1CCN(c2cccc(C(=O)N3CCOCC3)c2Cl)CC1 [Example 9, (S)-4-benzyl-2,5-dioxoimidazolidin-1-yl 4-(2-chloro-3-(morpholine-4-carbonyl)phenyl)piperazine-1-carboxylate]	
< 100	< 100	O=C(ON1C(=O)N[C@H](Cc2ccccc2)C1=O)N1CCN(c2cccc(C(=O)N3CCCC3)c2Cl)CC1 [Example 10, (R)-4-benzyl-2,5-dioxoimidazolidin-1-yl 4-(2-chloro-3-(pyrrolidine-1-carbonyl)phenyl)piperazine-1-carboxylate]	
< 100	< 100	O=C(ON1C(=O)N[C@H](Cc2ccccc2)C1=O)N1CCN(c2cccc(C(=O)N3CCCCC3)c2Cl)CC1 [Example 11, (R)-4-benzyl-2,5-dioxoimidazolidin-1-yl 4-(2-chloro-3-(piperidine-1-carbonyl)phenyl)piperazine-1-carboxylate]	
< 100	< 100	O=C(ON1C(=O)N[C@H](Cc2ccccc2)C1=O)N1CCN(c2cccc(C(=O)N3CCOCC3)c2Cl)CC1 [Example 12, (R)-4-benzyl-2,5-dioxoimidazolidin-1-yl 4-(2-chloro-3-(morpholine-4-carbonyl)phenyl)piperazine-1-carboxylate]	
< 100	< 100	O=C(ON1C(=O)N[C@@H](Cc2ccccc2)C1=O)N1CCN(c2cccc(C(=O)N3CCCCC3)c2)CC1 [Example 13, (S)-4-benzyl-2,5-dioxoimidazolidin-1-yl 4-(3-(piperidine-1-carbonyl)phenyl)piperazine-1-carboxylate]	
< 100	< 100	CN1CCN(C(=O)c2cccc(N3CCN(C(=O)ON4C(=O)N[C@@H](Cc5ccccc5)C4=O)CC3)c2Cl)CC1 [Example 14, (S)-4-benzyl-2,5-dioxoimidazolidin-1-yl 4-(2-chloro-3-(4-methylpiperazine-1-carbonyl)phenyl)piperazine-1-carboxylate]	
< 100	< 100	O=C(ON1C(=O)N[C@@H](Cc2ccccc2)C1=O)N1CCN(c2ccc(C(=O)N3CCCCC3)cc2Cl)CC1 [Example 15, (S)-4-benzyl-2,5-dioxoimidazolidin-1-yl 4-(2-chloro-4-(piperidine-1-carbonyl)phenyl)piperazine-1-carboxylate]	
< 100	< 100	CN(C)C(=O)c1cccc(N2CCN(C(=O)ON3C(=O)N[C@@H](Cc4ccccc4)C3=O)CC2)c1Cl [Example 16, (S)-4-benzyl-2,5-dioxoimidazolidin-1-yl 4-(2-chloro-3-(dimethylcarbamoyl)phenyl)piperazine-1-carboxylate]	
< 100	< 100	O=C(ON1C(=O)N[C@@H](Cc2ccccc2)C1=O)N1CCN(c2cc(C(=O)N3CCCCC3)ccc2Cl)CC1 [Example 17, (S)-4-benzyl-2,5-dioxoimidazolidin-1-yl 4-(2-chloro-5-(piperidine-1-carbonyl)phenyl)piperazine-1-carboxylate]	
		NC(=O)c1cccc(N2CCN(C(=O)ON3C(=O)N[C@@H](Cc4ccccc4)C3=O)CC2)c1Cl [Example 18, (S)-4-benzyl-2,5-dioxoimidazolidin-1-yl 4-(3-carbamoyl-2-chlorophenyl)piperazine-1-carboxylate]	ABHD6 % at 100 μM (ABHD6): 25% at 100 μM; Lp-PLA2 % at 100 μM (Lp-PLA2): 25% at 100 μM
> 1000	> 1000	O=C(O)c1cccc(N2CCN(C(=O)ON3C(=O)N[C@@H](Cc4ccccc4)C3=O)CC2)c1Cl [Example 19, (S)-3-(4-((4-benzyl-2,5-dioxoimidazolidin-1-yloxy)carbonyl)piperazin-1-yl)-2-chlorobenzoic acid]	
< 100	< 100	CN1C(=O)N(OC(=O)N2CCN(c3cccc(C(=O)N4CCCCC4)c3Cl)CC2)C(=O)[C@@H]1Cc1ccccc1 [Example 20, (S)-4-benzyl-3-methyl-2,5-dioxoimidazolidin-1-yl 4-(2-chloro-3-(piperidine-1-carbonyl)phenyl)piperazine-1-carboxylate]	
		O=C(ON1C(=O)N[C@@H](Cc2ccccc2)C1=O)N1CCCN(c2cccc(C(=O)N3CCCCC3)c2Cl)CC1 [Example 21, (S)-4-benzyl-2,5-dioxoimidazolidin-1-yl 4-(2-chloro-3-(piperidine-1-carbonyl)phenyl)-1,4-diazepane-1-carboxylate]	inhibition at 10 µM (ABHD6; at 10 μM): 100%; inhibition at 10 µM (Lp-PLA2): 100%
< 100	< 100	O=C(ON1C(=O)N[C@@H](Cc2ccc(C(F)(F)F)cc2)C1=O)N1CCN(c2cccc(C(=O)N3CCCCC3)c2Cl)CC1 [Example 22, (S)-2,5-dioxo-4-(4-(trifluoromethyl)benzyl)imidazolidin-1-yl 4-(2-chloro-3-(piperidine-1-carbonyl)phenyl)piperazine-1-carboxylate]	
		O=C(ON1C(=O)N[C@@H](Cc2ccc(Cl)cc2)C1=O)N1CCN(c2cccc(C(=O)N3CCCCC3)c2Cl)CC1 [Example 23, (S)-4-(4-chlorobenzyl)-2,5-dioxoimidazolidin-1-yl 4-(2-chloro-3-(piperidine-1-carbonyl)phenyl)piperazine-1-carboxylate]	ABHD6 % at 100 μM (ABHD6): 50% at 100 μM; Lp-PLA2 % at 100 μM (Lp-PLA2): 50% at 100 μM
< 100	< 100	COc1ccc(C[C@@H]2NC(=O)N(OC(=O)N3CCN(c4cccc(C(=O)N5CCCCC5)c4Cl)CC3)C2=O)cc1 [Example 24, (S)-4-(4-methoxybenzyl)-2,5-dioxoimidazolidin-1-yl 4-(2-chloro-3-(piperidine-1-carbonyl)phenyl)piperazine-1-carboxylate]	
